Columns and labels:
[1] = test system: psoriasis-induced xenotransplants (human skin grafted on beige-SCID mice, injected with PBMC's from psoriatic patients); assay: Efficacy study in psoriasis-induced human skin xenotransplants on beige-SCID mice, histological evaluation; assay type: in vivo; settings: topical treatment for 14 days (Day 42-56), histology at Day 56
From the text: The objective of this study was to determine the efficacy of Roflumilast as provided herein (at Examples 4 and 5) compared to the vehicle and Dexamethasone as shown at the Table 3. The evaluation was based on histology analysis following application of the respective test formulations.
The efficacy study has been conducted on female mice. The total duration of the experiment was 8 weeks, upon receiving of the human skin. Normal skin from healthy volunteers were obtained for grafting. Healthy human abdominal skin pieces with a width of 0.4 mm and surface area of 1.5×1.5 cm were provided. The skin sample was preserved in isotonic saline solution and transplanted within 6-12 hours after skin donation. In addition, blood samples were collected from psoriatic patients having classic plaque psoriasis and not undergoing any treatment. 20 mL blood samples were taken from both males and females psoriatic patients (from psoriatic patients having classic plaque psoriasis and not undergoing any treatment), and peripheral blood mononuclear cells (PBMC) were separated immediately after blood withdrawal.
Mice: Beige-severe combined immunodeficient mice C.B-17/IcrHsdscid-bg (beige-SCID) mice (weight ˜25 g) were included in this study. Mice were monitored twice a week for vital signs such as weight, food intake, coat, eyes, anal genital areas, discharge/soiling, behavior and criteria related to skin transplantation. Normal healthy human donor skin were transplanted onto the beige-SCID mice as previously described (See Keren A. et al., Novel nanosome delivery system combined with siRNA targeting the antimicrobial gene DFB4: a new approach for psoriasis management? Exp Dermatol. 2014; 23:464-465; Bracke S. et al., Targeted silencing of DEFB4 in a bioengineered skin-humanized mouse model for psoriasis: development of siRNA SECosome-based novel therapies. Exp Dermatol. 2014 ;23:199-201; Zaretsky M. et al., Directed evolution of a soluble human IL-17A receptor for the inhibition of psoriasis plaque formation in a mouse model. Chem Biol. 2013 21; 20:202-2; Gilhar A. et al., The beneficial effect of blocking Kv1.3 in the psoriasiform SCID mouse model. J Invest Dermatol. 2011;131:118 124; Keren A. et al., Innate lymphoid cells 3 induce psoriasis in xenotransplanted healthy human skin. J Allergy Clin Immunol. 2018;142:305-308.e6.).
British Journal of Pharmacology 2010; 159:842-855).
Four weeks following the engraftment, each mouse was injected (intradermally) with 1×10^7 IL-2 enriched allogeneic PBMC's from psoriatic patients (1×10^7 cells injected/mouse). Cells from different psoriasis patients were equally distributed between treatment groups. Each patient was represented in each treatment group.
Fourteen days following cells injections, the mice were divided into treatment groups (Table 4, see below) and treated according to the timeline indicated below (see Scheme 1). Each transplant was equally topically treated (50 μg) by using a sterile spatula.
Dexamethasone (D2915, Sigma): was freshly prepared for each administration by dilution in saline to final concentration (50 mg/ml). Dexamethasone serves as a positive control and was administered topically twice daily for 14 days following cells injections (at Day 42 following human skin transplantation) until the end of the study (Day 56).
The vehicle was administered topically (50 μg) once daily for 14 days as well.
On Day 56, the entire skin graft was excised and placed in 10% formaldehyde in saline overnight. Then, the specimens were placed in 70% ethanol and embedded and stained according to the standard Hematoxylin/Eosin protocol.
Skin graft histological assessment was performed (according to the psoriatic criteria including epidermal thickness) using light microscopy, and two observers blindly performed the evaluations. Epidermal thickness was determined using an ocular micrometer at a minimum of 50 points along the epidermis selected to represent points of maximal and minimal thickness. […]

[2] = according to the roflumilast DrugBank monograph; cited from earlier work
[3] = number of grafts/mice out of 10

Structure (SMILES)	Complete Recovery [1, 3]	Partial Recovery [1, 3]	Psoriatic Features [1, 3]	Complete Recovery (%) ([1]; percent of grafts/mice)	Partial Recovery (%) ([1]; percent of grafts/mice)	Psoriatic Features (%) ([1]; percent of grafts/mice)	calculated water solubility [2]
C[C@@H]1C[C@H]2[C@@H]3CCC4=CC(=O)C=C[C@]4(C)[C@@]3(F)[C@@H](O)C[C@]2(C)[C@@]1(O)C(=O)CO [Dexamethasone]	9/10	1/10	0/10	(90%)	(10%)	(0%)	
O=C(Nc1c(Cl)cncc1Cl)c1ccc(OC(F)F)c(OCC2CC2)c1 [Roflumilast, 3-(cyclopropylmethoxy)-n-(3,5-dichloropyridin-4-yl)-4-(difluoromethoxy)-benzamide]							6.2 µg/mL
